Experimental data as given in US9532970B2, “Compositions for anti-inflammatory, antioxidant effects and improved respiratory function by specific histone deacetylase inhibition” (priority 2014, dated 2017).
Read-outs that look alike come from different tables or passages of the source.

Experiments:
Horse PBMC = conditions: for Log2 Fold Change: LSF vs control
H9c2 cells = conditions: pre-treated with 10, 15 and 30 μM for 24 hours prior to 1 μM doxorubicin
HDAC-3 [1] = target: T1, HDAC-3 (Homo sapiens, UniProt O15379); test: biochemical
T1 sequence (O15379 whole entry, species assumed): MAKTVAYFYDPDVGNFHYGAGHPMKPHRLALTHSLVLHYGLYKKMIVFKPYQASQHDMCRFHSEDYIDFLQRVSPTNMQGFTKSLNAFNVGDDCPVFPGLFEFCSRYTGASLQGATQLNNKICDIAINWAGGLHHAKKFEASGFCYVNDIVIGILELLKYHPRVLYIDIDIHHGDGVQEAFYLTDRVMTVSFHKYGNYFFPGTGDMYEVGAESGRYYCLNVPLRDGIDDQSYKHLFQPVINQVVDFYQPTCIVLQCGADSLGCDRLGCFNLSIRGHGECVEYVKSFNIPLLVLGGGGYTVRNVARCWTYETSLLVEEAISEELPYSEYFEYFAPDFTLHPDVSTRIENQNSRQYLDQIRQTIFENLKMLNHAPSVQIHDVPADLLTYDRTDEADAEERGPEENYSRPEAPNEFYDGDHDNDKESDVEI
T1 sequence (Q9Y618 395-489 partner limits assumed, species assumed): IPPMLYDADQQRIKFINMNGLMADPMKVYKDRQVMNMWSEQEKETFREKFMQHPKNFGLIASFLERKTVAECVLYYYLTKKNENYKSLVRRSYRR

HDAC-3 [2] = target: T1, HDAC-3
[3] = system: peripheral blood mononuclear cells (PBMC)
HDAC8 [4] = target: T2, HDAC8 (Homo sapiens, UniProt Q9BY41)
Target sequence in this assay (Q9BY41 whole entry, species assumed): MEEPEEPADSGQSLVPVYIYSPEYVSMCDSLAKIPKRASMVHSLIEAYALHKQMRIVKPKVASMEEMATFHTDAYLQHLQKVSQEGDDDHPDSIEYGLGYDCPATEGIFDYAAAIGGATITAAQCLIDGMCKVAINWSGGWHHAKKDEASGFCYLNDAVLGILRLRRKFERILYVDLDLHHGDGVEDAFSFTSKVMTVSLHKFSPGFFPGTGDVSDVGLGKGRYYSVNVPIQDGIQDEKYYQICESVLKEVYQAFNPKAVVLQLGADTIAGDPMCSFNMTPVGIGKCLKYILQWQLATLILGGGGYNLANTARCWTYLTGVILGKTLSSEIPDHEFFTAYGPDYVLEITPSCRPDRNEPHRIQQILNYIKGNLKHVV

HDAC-6 = target: T3, HDAC-6 (Homo sapiens, UniProt Q9UBN7); test: biochemical
T3 sequence (Q9UBN7 1-1215): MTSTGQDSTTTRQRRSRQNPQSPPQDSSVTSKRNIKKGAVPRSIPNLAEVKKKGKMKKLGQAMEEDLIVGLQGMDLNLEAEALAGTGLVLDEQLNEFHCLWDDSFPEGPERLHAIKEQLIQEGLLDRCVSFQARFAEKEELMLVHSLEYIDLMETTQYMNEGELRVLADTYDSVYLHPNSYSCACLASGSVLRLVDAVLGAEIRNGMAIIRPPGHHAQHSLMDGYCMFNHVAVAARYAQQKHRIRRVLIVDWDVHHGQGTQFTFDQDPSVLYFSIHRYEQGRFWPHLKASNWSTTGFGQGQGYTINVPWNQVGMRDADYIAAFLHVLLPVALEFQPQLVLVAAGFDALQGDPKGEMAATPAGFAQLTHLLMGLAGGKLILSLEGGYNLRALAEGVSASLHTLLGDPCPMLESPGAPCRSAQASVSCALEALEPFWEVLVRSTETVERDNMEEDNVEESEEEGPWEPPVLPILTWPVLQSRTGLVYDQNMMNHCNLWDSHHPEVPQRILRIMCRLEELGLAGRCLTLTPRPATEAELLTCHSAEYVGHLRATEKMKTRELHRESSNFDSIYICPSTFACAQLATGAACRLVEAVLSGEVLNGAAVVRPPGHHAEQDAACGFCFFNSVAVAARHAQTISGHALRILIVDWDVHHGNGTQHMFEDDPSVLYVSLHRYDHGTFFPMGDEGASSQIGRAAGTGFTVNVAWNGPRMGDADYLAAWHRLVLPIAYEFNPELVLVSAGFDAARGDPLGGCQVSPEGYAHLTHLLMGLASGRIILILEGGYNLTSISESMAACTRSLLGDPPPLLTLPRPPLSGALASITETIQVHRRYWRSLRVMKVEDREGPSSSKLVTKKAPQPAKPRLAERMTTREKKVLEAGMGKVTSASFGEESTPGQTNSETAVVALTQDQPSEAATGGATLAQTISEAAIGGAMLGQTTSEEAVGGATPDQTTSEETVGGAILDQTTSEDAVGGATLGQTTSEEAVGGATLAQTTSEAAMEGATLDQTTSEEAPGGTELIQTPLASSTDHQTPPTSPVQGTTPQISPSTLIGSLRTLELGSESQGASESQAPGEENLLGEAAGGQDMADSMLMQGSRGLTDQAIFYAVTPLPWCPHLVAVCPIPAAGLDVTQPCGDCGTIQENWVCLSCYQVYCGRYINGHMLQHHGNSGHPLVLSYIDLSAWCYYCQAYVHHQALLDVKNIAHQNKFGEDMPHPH

HDAC-7 = HDAC-7 (Homo sapiens, UniProt Q8WUI4); test: Binding to metal dependent histone deacetylase enzymes (epigenetic assay services)
Sequence of HDAC-7 (Q8WUI4 whole entry): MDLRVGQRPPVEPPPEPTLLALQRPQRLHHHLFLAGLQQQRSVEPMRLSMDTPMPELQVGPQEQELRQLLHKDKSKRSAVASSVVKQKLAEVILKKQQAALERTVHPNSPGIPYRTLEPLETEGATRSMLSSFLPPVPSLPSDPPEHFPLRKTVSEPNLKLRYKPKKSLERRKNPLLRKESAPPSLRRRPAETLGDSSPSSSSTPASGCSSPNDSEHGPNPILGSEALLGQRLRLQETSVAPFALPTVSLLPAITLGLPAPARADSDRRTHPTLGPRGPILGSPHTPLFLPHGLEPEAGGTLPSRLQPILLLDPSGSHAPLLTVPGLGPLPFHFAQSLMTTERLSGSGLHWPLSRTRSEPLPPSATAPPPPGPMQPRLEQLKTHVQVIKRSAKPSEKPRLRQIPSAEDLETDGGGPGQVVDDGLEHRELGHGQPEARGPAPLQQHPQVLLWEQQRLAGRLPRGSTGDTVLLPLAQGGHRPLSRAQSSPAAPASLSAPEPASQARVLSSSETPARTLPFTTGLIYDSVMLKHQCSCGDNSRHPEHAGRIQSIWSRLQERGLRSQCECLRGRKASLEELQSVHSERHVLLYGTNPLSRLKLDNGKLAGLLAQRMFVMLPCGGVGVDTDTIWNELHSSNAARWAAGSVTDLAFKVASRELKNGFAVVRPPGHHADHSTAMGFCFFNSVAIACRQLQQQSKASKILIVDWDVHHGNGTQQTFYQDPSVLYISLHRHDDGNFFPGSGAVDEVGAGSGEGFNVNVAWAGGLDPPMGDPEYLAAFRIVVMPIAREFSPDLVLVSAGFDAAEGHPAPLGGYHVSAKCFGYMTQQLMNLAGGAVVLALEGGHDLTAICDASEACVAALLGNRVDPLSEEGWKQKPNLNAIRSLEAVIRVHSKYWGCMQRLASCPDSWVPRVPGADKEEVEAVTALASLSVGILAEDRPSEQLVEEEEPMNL

HDAC8 [5] = target: T2, HDAC8; conditions: FIG. 2
Target sequence in this assay (Q9BY41 whole entry): as the sequence (Q9BY41 whole entry, species assumed) above

HDAC8 [6] = target: T2, HDAC8; test: biochemical
Target sequence in this assay (Q9BY41 whole entry, species assumed): as above

[7] = system: naphthalene-induced airway epithelial damage; conditions: 5 mg/kg ip
[8] = three control vs three LSF treated samples
[9] = more subtle than Trichostatin A

With `C[S@@+]([O-])CCCCN=C=S` [LSF, (R)-1-Isothiocyanato-4-(methylsulfinyl)butane] the “Log2 Fold Change” value (Horse PBMC; gene ABCA1) was −4.37, the “Log2 Fold Change” value (Horse PBMC; gene APOBEC3Z1B) was −3.67 and the “Log2 Fold Change” value (Horse PBMC; gene ASPH) was 1.93. The “Log2 Fold Change” value (Horse PBMC; gene C2) was −2.13, the “Log2 Fold Change” value (Horse PBMC; gene CD180) was −2.97 and the “Log2 Fold Change” value (Horse PBMC; gene CMKLR1) was −3.79. The “Log2 Fold Change” value (Horse PBMC; gene CSF3R) was −3.76, the “Log2 Fold Change” value (Horse PBMC; gene CXCL9) was −2.55 and the “Log2 Fold Change” value (Horse PBMC; gene CYP1B1) was −3.83. The “Log2 Fold Change” value (Horse PBMC; gene DENND2A) was 3.67, the “Log2 Fold Change” value (Horse PBMC; gene FRMPD4) was −3.80 and the “Log2 Fold Change” value (Horse PBMC; gene FTL) was 1.51. For the same molecule, the “Log2 Fold Change” value (Horse PBMC; gene GSAP) was 2.00, the “Log2 Fold Change” value (Horse PBMC; gene IL8) was 3.54 and the “Log2 Fold Change” value (Horse PBMC; gene KCNJ2) was 2.06. The “Log2 Fold Change” value (Horse PBMC; gene MAFB) was −2.66, the “Log2 Fold Change” value (Horse PBMC; gene ME1) was 1.47 and the “Log2 Fold Change” value (Horse PBMC; gene MN-SOD) was 1.93. The “Log2 Fold Change” value (Horse PBMC; gene NR1H3) was −2.56, the “Log2 Fold Change” value (Horse PBMC; gene OSGIN2) was 1.88 and the “Log2 Fold Change” value (Horse PBMC; gene PLEKHA4) was −3.60. For the same molecule, the “Log2 Fold Change” value (Horse PBMC; gene PTPN12) was 1.43, the “Log2 Fold Change” value (Horse PBMC; gene RIPK2) was 2.01 and the “Log2 Fold Change” value (Horse PBMC; gene RNASE6) was −2.45. For the same molecule, the “Log2 Fold Change” value (Horse PBMC; gene SERPINB2) was −4.65, the “Log2 Fold Change” value (Horse PBMC; gene SLAMF8) was −2.75 and the “Log2 Fold Change” value (Horse PBMC; gene SLC7A8) was −3.35. For the same molecule, the “Log2 Fold Change” value (Horse PBMC; gene SLC7A11) was 2.34, the “Log2 Fold Change” value (Horse PBMC; gene SLC37A2) was −2.72 and the “Log2 Fold Change” value (Horse PBMC; gene SORCS1) was −2.71. The “Log2 Fold Change” value (Horse PBMC; gene STAC2) was 3.38, the “Log2 Fold Change” value (Horse PBMC; gene STXBP5) was 1.57 and the “Log2 Fold Change” value (Horse PBMC; gene TGM2) was −3.99. For the same molecule, the “Log2 Fold Change” value (Horse PBMC; gene TNFSF15) was 2.40, the “Log2 Fold Change” value (Horse PBMC; gene TNS3) was −3.09 and the “Log2 Fold Change” value (Horse PBMC; gene TUBA4A) was 1.30. The “Log2 Fold Change” value (Horse PBMC; gene TXN) was 1.87, the “Log2 Fold Change” value (Horse PBMC; gene TXNRD1) was 2.13 and the “Log2 Fold Change” value (Horse PBMC; gene WDR59) was 2.19. The “Log2 Fold Change” value (Horse PBMC; gene ZFAND2A) was 2.22, the “differentially expressed genes (number)” value (Horse PBMC; [8]) was 5951 and the “down-regulated genes (number)” value (Horse PBMC; [8]) was 3012. For the same molecule, the “up-regulated genes (number)” value (Horse PBMC; [8]) was 2939, the “doxorubicin-induced accumulation of γH2AX foci” value (H9c2 cells) was “attenuates” and the IC50 (HDAC-3 [1]) was 20.5 mM. The HILLSLOPE (HDAC-3 [2]; HDAC-3) was −0.20, the “binding to HDAC 3 (in words)” value (HDAC-3 [2]; [9]) was “specific binding” and the “reduction in chemokines and cytokines relative to Trichostatin A (TSA), SAHA and sodium butyrate (NaB)” value ([3]; 1 μM TSA, 10 μM SAHA, 10 mM NaB, 15 or 30 μM LSF) was “more pronounced effects”. The “levels of TNF-α, IL-1β, IL-6, IL-8, MIP-1β and IP-10 in supernatants” value ([3]; 15 μM LSF or 30 μM LSF, FIG. 3) was “reduction”, the “binding to HDAC8 relative to the other HDACs” value (HDAC8 [4]; FIG. 1) was “most pronounced” and the HILLSLOPE (HDAC8 [4]; HDAC-8) was −0.88. For the same molecule, the “binding to HDAC 8 (in words)” value (HDAC8 [4]; [9]) was “specific binding”, the IC50 (HDAC-6) was 1.02 mM and the HILLSLOPE (HDAC-7; HDAC-7) was −0.41. For the same molecule, the IC50 (HDAC-7; HDAC-7) was 5.81 mM, the “binding to HDAC 7 (in words)” value (HDAC-7; [9]) was “specific binding” and the “inhibition of the enzymatic activity of HDAC8” value (HDAC8 [5]) was “inhibits”. For the same molecule, the “specificity of inhibition, HDAC8 compared to HDAC1” value (HDAC8 [5]; HDAC1 and HDAC8 inhibitor Screening Assay Kits) was “specificity of L-sulforaphane for HDAC8 compared to HDAC1”, the IC50 (HDAC8 [6]) was 0.0827 mM and the epithelial denudation ([7]; 24 hours post-naphthalene, level analogous to dexamethasone 1 mg/kg) was “reduces”. For the same molecule, the lamina reticularis thickness ([7]; 72 hours post-naphthalene, efficacy similar to dexamethasone) was “reduces”.
